Data published in patent US20080119530A1, “Method for treatment and prevention of ultraviolet light induced skin pathologies” (priority 2006, published 2008).

How the values were obtained:
[1] = system: skin; type: in vivo, mouse
Source text: Real-Time PCR. Selected changes in gene expression were validated using real-time PCR. Sequences supplied by Affymetrix from the probe set of Il1 b (probe: 1449399_a_at), Mmp9 (probe: 1416298_at) and Thbs1 (probe: 1421811_at) were scanned for unique sequences using a stringent blast search (www.ncbi.nlm.nih.gov/BLAST). Sequences spanning exons were selected preferentially for probes and primers for prepared using Assays-by-Design (Applied Biosystems, Foster City, Calif.). Real-time PCR was performed using TaqMan One-Step RT-PCR Master Mix Reagents (Applied Biosystems, Foster City, Calif.) according to the manufacturer's instructions on an ABI Prism 7000 (Applied Biosystems, Foster City, Calif.). The relative efficiency of amplification of the selected gene versus control (GAPDH or actin) was plotted to ensure the slope of total RNA versus ΔCT was less than 0.05. The 2^−ΔΔC^T was used to determine fold-change differences between samples^25.

[2] = system: p38 kinase, ERK1/2 and JNK1/2; experiment: MAPK activity in keratinocytes; type: cell-based, mouse; conditions: after sham UV
Source text: Inactivation of Cdc25a can occur through activation of a member of the p38 MAPK signaling pathway, which is also activated by Erbb2, but this regulation of Cdc25a remains controversial (24). […] Other mechanisms for the inactivation of Cdc25a, including sequestration in the cytoplasm and phosphorylation by p38 kinase following UV exposure or osmotic shock, have been reported (25).

[3] = system: primary keratinocytes; experiment: Cell cycle distribution (DNA content, flow cytometry) in cultured keratinocytes; type: cell-based, mouse
Source text: Cell culture. […] Keratinocytes were transfected with Erbb2-targeted siRNA (32), Stealth RNAi Negative Control LO GC (Invitrogen, Carlsbad, Calif.), Cy3-conjugated Label IT RNAi Delivery Control (Mirus, Madison, Wis.) or sham transfection with TransIT-siQUEST Transfection Reagent (Mirus, Madison, Wis.). Plasmids with Cdc25a (Hassepass et al. 2003a) and EGFP (enhanced green fluorescent protein) cDNA were cotransfected with Lipofectamine Transfection Reagent (Invitrogen, Carlsbad, Calif.). Transfection efficiency was quantified by determining the proportion of the cells that incorporated the fluorescent Cy3-conjugated siRNA or GFP one day post-transfection. Keratinocytes homozygous for the Erbb2 loxP mutation were infected with Cre recombinase-expressing or empty adenoviral vectors in polybrene (Sigma).
Cell cycle. For in vivo analysis of cell cycle distribution, sections from paraffin embedded blocks were dewaxed with xylene, rehydrated and digested in PBS containing 0.5% pepsin (Sigma, St. Louis, Mo.). The nuclei were isolated by filtration and suspended in Vindelov's solution reagent (3.5 mM tris base, pH 7.6, 10 mM NaCl, […] Ribonuclease A, 75 μg/ml PI, 1.01l/ml IPEGAL) (56). For in vitro analysis, keratinocytes were resuspended, fixed in 70% ethanol, resuspended in Vindelov's solution (3.5 mM Tris base, pH 7.6, 10 mM NaCl, 10 μg/ml Ribonuclease A, 75 μg/ml propidium iodide, 1.01l/ml IPEGAL), and analyzed on a FACSCalibur flow cytometer (Becton Dickinson, Franklin Lakes, N.J.). Cell cycle distributions were determined using ModFit LT 3.1 software (Verity Software House, Topsham, Me.). […]
To further investigate Erbb2's effects on cell cycle progression after UV irradiation, DNA synthesis was examined after UV irradiation of cultured primary keratinocytes lacking Erbb2 activity. […] An even more striking effect was detected after UV irradiation. […] The influence of Erbb2 activation on S-phase progression was determined using both pharmacologic and genetic models to interfere with Erbb2 signaling. […]

## COc1cc(/C=C(\C#N)C(N)=O)cc(CSc2nc3ccccc3s2)c1O [AG825]
[1]; 24 h after UV exposure, qPCR
  fold increase in Mmp9 expression: 1.3 fold
[1]; 24 h post-UV, real-time PCR
  Thbs1 expression vs vehicle-treated mice: similar
[1]; real-time PCR
  Il1 b expression: fold greater increase after UV in vehicle-treated compared to AG825-treated samples: 6 fold
[1]; sham-irradiated skin, real-time PCR
  fold higher Thbs1 expression compared to corresponding control: 2 fold
[2]
  p38 kinase, ERK1/2 and JNK1/2 activity: decrease
[3]; after UV exposure
  time at which S-phase arrest began: 18 h
[3]; after sham UV
  S-phase arrest: caused S-phase arrest
[3]; inhibition prior to UV exposure
  increase in the percentage of cells in S-phase: 10%
